Residues, ends and D or L forms follow the SMILES beside them.
Tests used:
S. aureus USA300 [1] = assay: Live cell penetration experiment (FITC, confocal); assay type: cell-based, Staphylococcus aureus; conditions: peptide and FITC 12.5 μM
Method: The entrance of a fluorescent dye into live bacterial cells was followed by confocal microscopy (Mishra et al. (2015) RSC Advances 5:59758-59769). In short, S. aureus USA300 was grown to the exponential phase from the overnight culture. The cells were then washed twice with fresh 1×PBS (pH 7.2) and the final cell density was adjusted to 1×10^8 CFU/mL. 1500 μL of the culture was added to the chambers of cuvettes (borosilicate cover glass systems) with equimolar concentrations of TetraF2W-RK and fluorescein isothiocyanate FITC (12.5 μM). The samples were examined with a confocal laser scanning microscope (Zeiss 710) with a series of live time pictures taken at every 5 seconds for 5 minutes and the data were processed using Zen 2010 software.

proteinase K = target: T1, proteinase K (Parengyodontium album, UniProt P06873); assay: Peptide stability to proteases (SDS-PAGE); assay type: in vitro ADME, fungal; conditions: peptide:protease 40:1, 24 hours, 37° C.
T1 construct: purchased Sigma or Fisher
Method: When degraded, no peptide band could be detected on a 5% stacking/18% resolving tricine gel after 2-4 hours incubation at 37° C. Briefly, a solution (100 μL) containing 250 μM peptide and 6.25 μM protease (Sigma or Fisher) in 10 mM PBS buffer (pH 8) was incubated at 37° C. (peptide/protease molar ratio, 40:1). Aliquots (10 μL) of the reaction solutions were taken at 0, 6, and 24 hours and immediately mixed with 10 μL of 2× SDS loading buffer followed by boiling for 5 minutes to stop the reaction. […] After electrophoresis, the gel was stained by Brilliant Blue R-250 (Fisher) and destained to view the peptide bands.

E. coli ATCC 25922 = assay type: cell-based, Escherichia coli; conditions: ATCC 25922, 20 h
Method: (§1) The antimicrobial activity of peptides was evaluated using a standard broth microdilution protocol. In brief, exponential phase bacteria at 10^6 CFU were incubated with serially diluted peptides overnight for ˜20 hours at 37° C. The plates were read on a ChroMate® 4300 Microplate Reader at 630 nm (GMI, Ramsey, Minn.).

S. aureus USA300 [2] = assay: Inhibition of biofilm growth (XTT); assay type: cell-based, Staphylococcus aureus; set-up: unit of the concentration uncertain
Method: (§2) Three types of experiments were conducted to evaluate the anti-biofilm activity of these peptides against S. aureus USA300, which was grown in tryptic soy broth (TSB) media in flat bottom, 96-well, polystyrene microtiter plates (Mishra et al. (2015) RSC Advances 5:59758-59769; Dean et al. (2011) BMC Microbiol., 11:114).
The second experiment evaluates the ability of the peptide to inhibit biofilm formation of S. aureus USA300 in 24 hours. In brief, S. aureus USA300 (10^5 CFU/mL) was made in fresh TSB media from exponentially growing bacteria. 180 μL of this bacterial culture was added to each well of the microtiter plates containing 20 μL of 10× peptide solution.

S. aureus USA300 [3] = assay: Killing kinetics by colony counting; assay type: cell-based, Staphylococcus aureus; conditions: 10^5 CFU S. aureus USA300, colony counting
Method: Killing kinetic experiments were conducted similar to antibacterial assays described above with the following modifications (Wang et al. (2012) Antimicrob. Agents Chemother., 56:845-856). Aliquots of cultures (10^5 CFU) treated with TetraF2W peptides were taken at 15, 30, 50, 90, and 120 minutes, diluted 100-fold, and plated on Luria-Bertani (LB) agar plates. Colonies were counted after overnight incubation at 37° C.

S. aureus USA300 [4] = assay: Confocal microscopy of preformed biofilms, LIVE/DEAD staining; assay type: cell-based, Staphylococcus aureus; conditions: 25 μM
Method: S. aureus USA300 (10^5 CFU/mL) was made from exponentially growing bacteria. 1800 μL was added to the chamber of cuvettes (borosilicate cover glass systems), and was incubated for 37° C., 24 hours for biofilm formation. Media was then pipetted out and chambers were washed with 1×PBS to remove non-adhered cells. To disrupt the preformed biofilms, 200 μL of 10× stocks of the peptide was added followed by 1800 μL of TSB. Control cuvettes contained water instead of peptide. The cuvettes were again incubated for another 24 hours at 37° C. Subsequently, the supernatant was pipetted out and the chambers were washed with 1×PBS. For evaluation under confocal microscope the biofilms were stained with […] of LIVE/DEAD® kit (Invitrogen Molecular Probes) according to the manufacturer's instructions. The samples were examined with a confocal laser scanning microscope (Zeiss 710) and the data processed using Zen 2010 software.

S. aureus USA300 [5] = assay type: cell-based, Staphylococcus aureus; conditions: USA300, 20 h
Method: as §1

human red blood cells = assay: Hemolytic ability (Example 3); assay type: cell-based; conditions: concentration that causes 50% hemolysis
Outline: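 Human red blood cells were washed three times in PBS, diluted to 2%, exposed to peptide for one hour at 37 °C and centrifuged. Hemoglobin in the supernatant was read at 545 nm. Percent lysis is relative to 1% Triton X-100 (100%) and PBS (0%).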

S. aureus USA300 [6] = assay: Inhibition of bacterial attachment (XTT); assay type: cell-based, Staphylococcus aureus; conditions: 25 μM
Method: as §2
The first experiment measures the ability of the peptide to inhibit bacterial attachment, the initial step for biofilm formation. In short, overnight cultures of S. aureus USA300 were grown in TSB media to an optical density (600 nm) of ˜1.0. 180 μL of this culture was added to each well of the microtiter plates containing 20 μL of 10× peptide solution. The plates are then incubated at 37° C. for 1 hour. Media with bacteria were then pipetted out and chambers were washed with 1×PBS to remove non-adherent cells. The inhibition of biofilms was estimated by XTT [2,3-bis(2-methyloxy-4-nitro-5-sulfophenyl)-2H-tertazolium-5-carboxanilide] assay by following the manufacturer's instructions with modifications. 180 μL of fresh TSB and 20 μL of XTT solution was added to each well and the plates were again incubated for 2 hours at 37° C. Absorbance at 450 nm (only media with XTT containing wells served as the blank) was obtained using a Chromate® microtiter plate reader. […]

T1 sequence (P06873 106-384): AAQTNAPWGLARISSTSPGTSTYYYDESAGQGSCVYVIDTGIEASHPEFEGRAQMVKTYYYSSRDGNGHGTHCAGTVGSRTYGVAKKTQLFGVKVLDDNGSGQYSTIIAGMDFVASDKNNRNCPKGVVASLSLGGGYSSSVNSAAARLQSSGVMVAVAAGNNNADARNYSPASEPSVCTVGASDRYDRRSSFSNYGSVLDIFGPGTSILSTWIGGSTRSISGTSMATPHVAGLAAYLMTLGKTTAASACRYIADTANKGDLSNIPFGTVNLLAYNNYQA

With `CC[C@H](C)[C@H](NC(=O)[C@H](CCCCN)NC(=O)[C@H](CCCNC(=N)N)NC(=O)[C@H](CC(C)C)NC(=O)[C@H](Cc1c[nH]c2ccccc12)NC(=O)[C@H](Cc1c[nH]c2ccccc12)NC(=O)[C@@H](N)Cc1c[nH]c2ccccc12)C(=O)N[C@@H](Cc1c[nH]c2ccccc12)C(N)=O` [TetraF2W-RK, WWWLRKIW] (H-WWWLRKIW-NH2; N-terminus assumed) the “time to entry of FITC into bacteria after peptide treatment” value (S. aureus USA300 [1]) was 30 s and the “stability to fungal proteinase K” value (proteinase K) was “completely degraded”.
For `CC[C@H](C)[C@H](NC(=O)[C@H](CCCNC(=N)N)NC(=O)[C@H](CCCNC(=N)N)NC(=O)[C@H](CC(C)C)NC(=O)[C@H](Cc1c[nH]c2ccccc12)NC(=O)[C@H](Cc1c[nH]c2ccccc12)NC(=O)[C@@H](N)Cc1c[nH]c2ccccc12)C(=O)N[C@@H](Cc1c[nH]c2ccccc12)C(N)=O` [TetraF2W-RR, WWWLRRIW] (H-WWWLRRIW-NH2; N-terminus assumed), the “E. coli (MIC)” value (E. coli ATCC 25922) was 6.2 µM, the “inhibition of biofilm growth” value (S. aureus USA300 [2]; 6.25 (unit uncertain) as printed) was “actively inhibited biofilm growth” and the “inhibition of biofilm formation” value (S. aureus USA300 [2]; 25 (unit uncertain) as printed) was “completely inhibited”. The “time in which all the bacteria were killed” value (S. aureus USA300 [3]) was 90 min, the “killing in 24 hour preformed biofilms (LIVE/DEAD confocal)” value (S. aureus USA300 [4]) was “capable of killing S. aureus USA300 in 24 hour biofilms” and the “S. aureus (MIC)” value (S. aureus USA300 [5]) was 3.1 µM. For the same molecule, the HL50 (human red blood cells) was 35 µM and the “reduction of adherence of bacterial cells” value (S. aureus USA300 [6]) was 83%.
